Publication PMC7076255, “A Redox-Sensitive Thiol in Wis1 Modulates the Fission Yeast Mitogen-Activated Protein Kinase Response to H2O2 and Is the Target of a Small Molecule” (Molecular and Cellular Biology, 2020)

Target: T1, Wis1 (Schizosaccharomyces pombe, UniProt P33886)
T1 construct: full length, N-terminal HA3 tag (JJS6, thermal shift) or N-terminal HA and C-terminal His6 tags (JJS7, kinase assay); nmt1 promoter at the chromosomal locus; expressed in S. pombe
T1 sequence (P33886 1-605): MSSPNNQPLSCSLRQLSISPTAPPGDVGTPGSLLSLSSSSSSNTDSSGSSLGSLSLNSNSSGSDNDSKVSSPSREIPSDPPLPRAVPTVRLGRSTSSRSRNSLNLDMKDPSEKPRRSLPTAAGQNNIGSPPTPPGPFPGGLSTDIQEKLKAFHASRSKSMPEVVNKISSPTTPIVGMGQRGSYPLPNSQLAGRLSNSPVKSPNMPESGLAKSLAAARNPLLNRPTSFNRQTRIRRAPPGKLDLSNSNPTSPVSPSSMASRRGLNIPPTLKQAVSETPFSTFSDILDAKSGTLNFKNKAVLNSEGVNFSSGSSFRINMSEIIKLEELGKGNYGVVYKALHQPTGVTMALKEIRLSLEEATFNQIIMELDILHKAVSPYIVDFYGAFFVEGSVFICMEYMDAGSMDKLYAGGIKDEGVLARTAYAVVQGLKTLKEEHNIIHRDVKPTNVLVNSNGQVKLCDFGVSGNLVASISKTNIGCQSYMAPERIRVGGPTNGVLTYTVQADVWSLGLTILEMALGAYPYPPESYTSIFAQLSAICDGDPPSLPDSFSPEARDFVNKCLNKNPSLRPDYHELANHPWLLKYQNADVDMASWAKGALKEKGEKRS
Experiment: thermal shift in crude lysate, Western blot of soluble HA-Wis1
Type: biochemical

ΔTm at 3 µM: 2 °C
Compound: CCOc1cccc(-c2cc(=O)c3ccccc3o2)c1N [INR119]
